# Key:
# [1] = clinical; assay type: in vivo, human; conditions: human, in vivo; for AUC(0-t): AUC(0-last)
# Experimental: (§1) • Protocol AMX3500: sparse sampling in 87 subjects with ALS. Approximately 2 samples are collected for each subject, 1 or 4 hours post dose following 12 and 24 weeks of treatment. • Protocol A35-002: rich sampling in 14 healthy adults. Approximately 21 samples are collected over 24 hours for each subject on two occasions, once following a high fat meal and the other under fasting conditions.
# A total of 14 healthy subjects were enrolled in order to have no fewer than 12 subjects complete. A predefined mix of gender was selected.
# Each study period followed the same study design (FIG. 1). Subjects were screened for inclusion in the study up to 28 days before dosing. Subjects were admitted to the clinical unit during Study Day −2 for Period 1 and Day −1 for Period 2 and were dosed in the morning of Day 1. On the night prior to Period 1 the subjects in the fasted/fed or fed/fasted sequence were fasted for a minimum of 10 h prior to dosing.
# The solution was stirred until the powder was mostly dissolved.
# Any departures from the intended regimen were recorded in the eCRFs. All dose administrations were performed in the study center under the supervision of appropriately trained staff.
# Subjects were provided with a light snack and were then fasted from all food and drink (except water) until the following morning, when they were provided with a high-fat breakfast. The breakfast was consumed over a maximum period of 25 min, and dosing occurred 30 min after the start of breakfast. Subjects were encouraged to eat their meal evenly over the 25 min period. For this trial the subject was deemed compliant if they consumed >80% of the high-fat standard breakfast.
# The subjects in the 24-h baseline and in the fasted condition Period remained fasted up to 4 h post-dose and were offered a standardized meal to be taken between 4.00 and 5.00 h post-dose. Subjects in the fed condition were fasted overnight and received a high-fat standard breakfast 30 minutes pre-dose and then remained fasted for 4.00 to 5.00 h post-dose when they received a standardized meal.
# Venous blood samples were withdrawn via an indwelling cannula or by venipuncture according to the time schedule presented in Table 5 Table, Table 6, and Table 7.
# Blood samples of approximately 4 mL were collected into 4 mL BD Vacutainer Plastic K2EDTA Tubes with Lavender Hemogard Closure, and was gently inverted approximately 8 times. The tubes were then immediately stored on ice and processed within 60 min of collection by centrifugation at 1500 g for 10 min at 2 to 8° C. The resultant plasma was separated equally into 2 aliquots and transferred to 2 mL appropriately labelled primary and backup polypropylene cryovials.
# Actual elapsed time from dosing was to be used for the final plasma PK parameter calculations after database lock.
# [2] = clinical; assay type: in vivo, human; conditions: human, in vivo; for concentration at 1 h / concentration at 4 h: both sexes
# Experimental: • 1. […] Treatment is administered as one sachet daily for the initial 3 weeks and then increased if tolerated to one sachet twice daily. […] Sampling times are randomly assigned to occur at either 1 or 4 hours post-dose at the 12 week visit and the other time at the 24 week visit. • Treatment duration: 24 weeks • 2.
# as §1
# Subjects were advised to take the drug before a meal. […] Referred to as protocol 3500.
# A study was carried out to examine plasma concentration data in various subgroups for the protocol AMX3500 Phase 2 study. This example summarizes plasma concentrations of TUDCA and 2 metabolites, also related acids, UDCA, the de-conjugated TUDCA metabolite, and GUDCA, the glycine conjugate of UDCA.
# For each of the 2 treatment arms (treatment and placebo), subjects were further divided into 2 sample sequence groups for schedule of pharmacokinetic measurements: • 1. 1 hour post-dose for the Week 12 visit and 4 hours post-dose for the Week 24 visit • 2. 4 hours post-dose for the Week 12 visit and 1 hour post-dose for the Week 24 visit
# Twenty-four distinct medication descriptions were identified as containing antibiotics. Dates of antibiotic use were compared to dates of visits and if the antibiotic use date range contained the visit date, then that visit was flagged for that subject's data for antibiotic use. […] These antibiotics could hypothetically be in a subject's body still if this event occurred. However, it was observed that only a small number of subjects took antibiotics near to visit dates but not overlapping visit dates. In other cases, subjects were taking antibiotics on the date of one visit but not the others. Some subjects are therefore in both categories of antibiotic use and nonuse, though no individual visits for a subject are counted in both categories at the same time.
# Subjects whose race were recorded as “Black” or “African American” were evaluated according to the standard Glomerular Filtration Rate (eGFR) rating for that race. The other standard eGFR rating used, sometimes referred to as a standard for people who are White, was applied to subjects of all other races. These rates were analyzed as continuous in mL/min/1.73 m2 units and as the following categories: • 1. Less than 90 mL/min/1.73 m^2 • 2. Equal to or greater than 90 mL/min/1.73 m^2
# Age was converted from a continuous variable to 2 categories: • 1. As old or older than 65 years old • 2. Younger than 65 years old
# All boxplots boxes are bounded at the 25th and 75th percentile, with whiskers at 10th and 90th percentiles, outliers beyond that as points, the black line as median, and red line as mean.
# [3] = Steady-state plasma concentration
smiles,measurement,setting,value
"C[C@H](CCC(=O)NCC(=O)O)[C@H]1CC[C@H]2[C@@H]3[C@@H](O)C[C@@H]4C[C@H](O)CC[C@]4(C)[C@H]3CC[C@]12C [GUDCA, glycoursodeoxycholic acid]",Tmax,"[1]; both sexes, Tmax Median",16 h
same,AUC(0-t),"[1]; both sexes, po, Geometric Mean",4.14 µg·h/mL
same,Cmax,"[1]; both sexes, po",0.381 µg/mL
same,Cmax,"[1]; both sexes, po, Geometric Mean",0.381 µg/mL
same,half-life,"[1]; both sexes, po, T1/2, Geometric Mean",12.7 h
same,AUC(0-last) Ratio of adj geo means Fed/Fasted (GMR),[1]; both,137.31%
same,AUG(0-last),[1]; both,5060 (88.2) ng.h/ml
same,Cmax Ratio of adj geo means Fed/Fasted (GMR),[1]; both,134.45%
same,MR Cmax (metabolite to parent ratio),[1]; both,0.571
same,T1/2,[1]; both,12.744 h
same,"increase in AUC(0-last), fed relative to fasted",[1]; both,~37%
same,peak exposure to metabolite as % of that for parent,[1]; both,approximately 51%
same,time of maximum plasma concentrations (range),[1]; both,6.00 to 20.00 h
same,total exposure to metabolite based on AUC(0-last) as % of that for parent,[1]; both,approximately 95%
same,"AUC(0-last), Adj Geo Mean","[1]; both, po",4.2 µg·h/mL
same,"AUC(0-last), Max","[1]; both, po",12 µg·h/mL
same,"AUC(0-last), Median","[1]; both, po",3.4 µg·h/mL
same,"AUC(0-last), Min","[1]; both, po",1.84 µg·h/mL
same,"AUC(0-last), Ratio of adj geo means Fed/Fasted","[1]; both, po",137.31%
same,"Cmax, Adj Geo Mean","[1]; both, po",0.382 µg/mL
same,"Cmax, Max","[1]; both, po",1.42 µg/mL
same,"Cmax, Median","[1]; both, po",0.353 µg/mL
same,"Cmax, Min","[1]; both, po",0.143 µg/mL
same,"Cmax, Ratio of adj geo means Fed/Fasted","[1]; both, po",134.45%
same,"Lambda-z, Geometric Mean","[1]; both, po",0.0543 h⁻¹
same,"Lambda-z, Max","[1]; both, po",0.0544 h⁻¹
same,"Lambda-z, Median","[1]; both, po",0.0543 h⁻¹
same,"Lambda-z, Min","[1]; both, po",0.0544 h⁻¹
same,"T1/2, Max","[1]; both, po",12.74 h
same,"T1/2, Median","[1]; both, po",12.744 h
same,"T1/2, Min","[1]; both, po",12.74 h
same,"Tmax, Max","[1]; both, po",20.00 h
same,"Tmax, Min","[1]; both, po",6.00 h
same,MR AUC(0-last),[1],1.056
same,concentration at 1 h,"[2]; Plasma Concentration, Mean",1.02 µg/mL
same,concentration at 4 h,"[2]; Plasma Concentration, Mean",1.51 µg/mL
same,concentration at 1 h,"[2]; Plasma Concentration, Median",0.773 µg/mL
same,concentration at 4 h,"[2]; Plasma Concentration, Median",1.51 µg/mL
same,concentration at 1 h,[2]; [3],1.07 µg/mL
same,concentration at 4 h,[2]; [3],1.32 µg/mL
same,steady state reached by,[2]; both,≤ 12 Week
same,"Plasma Concentration, Median","[2]; both, 1 h",0.815 µg/mL
same,"Plasma Concentration, Median","[2]; both, 4 h",1.19 µg/mL
same,"Plasma Concentration, Min","[2]; both, 4 h",0.02 µg/mL
same,accumulation in plasma after once- or twice-daily dosing,[2],substantial accumulation
same,effect of age on steady-state plasma concentration,[2],no difference
same,effect of mild renal insufficiency on steady-state plasma concentration,[2],no discernible difference
same,steady-state plasma concentrations versus endogenous levels,[2],at least an order of magnitude higher than endogenous levels
"C[C@H](CCC(=O)O)[C@H]1CC[C@H]2[C@@H]3[C@@H](O)C[C@@H]4C[C@H](O)CC[C@]4(C)[C@H]3CC[C@]12C [UDCA, ursodeoxycholic acid]",AUC(0-inf),"[1]; both sexes, AUC(0-inf)",11.3 µg·h/mL
same,AUC(0-t),[1]; both sexes,5.54 µg·h/mL
same,Cmax,[1]; both sexes,0.639 µg/mL
same,half-life,"[1]; both sexes, elimination half-lives (range)",3.01 to 7.58 h
same,Cmax,"[1]; both sexes, po",0.639 µg/mL
same,AUC(0-inf),[1]; both,11.3 µg·h/mL
same,AUC(0-last) Ratio of adj geo means Fed/Fasted (GMR),[1]; both,136.34%
same,AUG(0-last),[1]; both,5540 (72.5) ng.h/ml
same,Cmax Ratio of adj geo means Fed/Fasted (GMR),[1]; both,112.17%
same,Tmax Median,[1]; both,6.000 h
same,"increase in AUC(0-last), fed relative to fasted",[1]; both,~36%
same,"increase in Cmax, fed relative to fasted",[1]; both,approximately 12%
same,peak exposure to metabolite as % of that for parent,[1]; both,approximately 86%
same,time of maximum plasma concentrations (range),[1]; both,0.25 to 20.00 h
same,total exposure to metabolite based on AUC(0-last) as % of that for parent,[1]; both,approximately 127%
same,"AUC(0-last), Adj Geo Mean","[1]; both, po",5.53 µg·h/mL
same,"AUC(0-last), Ratio of adj geo means Fed/Fasted","[1]; both, po",136.34%
same,"Cmax, Adj Geo Mean","[1]; both, po",0.635 µg/mL
same,"Cmax, Ratio of adj geo means Fed/Fasted","[1]; both, po",112.17%
same,Tmax Median,"[1]; both, po",6.000 h
same,concentration at 1 h,"[2]; Plasma Concentration, Mean",1.08 µg/mL
same,concentration at 4 h,"[2]; Plasma Concentration, Mean",1.3 µg/mL
same,concentration at 1 h,"[2]; Plasma Concentration, Median",0.592 µg/mL
same,concentration at 4 h,"[2]; Plasma Concentration, Median",0.919 µg/mL
same,concentration at 1 h,[2]; [3],0.91 µg/mL
same,concentration at 4 h,[2]; [3],1.17 µg/mL
same,"Plasma Concentration, Min",[2]; both,0.02 µg/mL
same,"Plasma Concentration, Q1",[2]; both,0.02 µg/mL
same,steady state reached by,[2]; both,≤ 12 Week
same,"Plasma Concentration, Mean","[2]; both, 1 h",0.9099 µg/mL
same,"Plasma Concentration, Median","[2]; both, 1 h",0.614 µg/mL
same,"Plasma Concentration, Min","[2]; both, 4 h",0.02 µg/mL
same,accumulation in plasma after once- or twice-daily dosing,[2],substantial accumulation
same,effect of age on steady-state plasma concentration,[2],no difference
same,effect of mild renal insufficiency on steady-state plasma concentration,[2],no discernible difference
same,steady-state plasma concentrations versus endogenous levels,[2],at least an order of magnitude higher than endogenous levels

# Reference: patent US20230372263A1, “METHODS AND COMPOSITIONS FOR TREATING AMYOTROPHIC LATERAL SCLEROSIS” (Amylyx Pharmaceuticals, Inc., priority 2022, published 2023)
